pIC50: −log10 of the molar value.
Experiments:
[1] = target: T1, human DGKalpha (Homo sapiens, UniProt P23743); assay: Human DGKalpha kinase activity inhibition assay (ADP-Glo); format: biochemical; settings: read-out: IC50 hDGKa
T1 construct: made in house; host or cells: baculovirus-infected Sf9 insect cells
Method: Human DGKalpha inhibitory activity of compounds of the present invention was quantified employing the human DGKalpha kinase activity assay as described in the following paragraphs. In essence, the enzyme activity was measured by quantification of the adenosine-di-phosphate (ADP) generated as a co-product of the enzyme reaction via the “ADP-Glo™ Kinase Assay” kit from the company Promega. This detection system works as follows: In a first step the ATP not consumed in the kinase reaction is quantitatively converted to cAMP employing an adenylate cyclase (“ADP-Glo-reagent”), then the adenylate cyclase is stopped and the ADP generated in the kinase reaction converted to ATP, which subsequently generates in a luciferase-based reaction a glow-luminescence signal (“Kinase Detection Reagent”).
(§1) C-terminally FLAG-tagged, recombinant full-length human DGKalpha (expressed in baculovirus infected insect cells, purified using anti-Flag pulldown and size exclusion chromatography as described below, DGKa_hu_1) was used as enzyme. As substrate for the kinase 1,2-dioleoyl-sn-glycerol, reconstituted in octyl-β-D-glucopyranoside micelles, was used. […] Then 35 volumes of 50 mM MOPS buffer (pH 7.4) were added to yield a solution of 0.28 mM 1,2 dioleoyl-sn-glycerol and 200 mM octyl-β-D-glucopyranoside, which was aliquoted, flash-frozen in liquid nitrogen, and stored at −20° C. until use.
For the assay 50 nl of a 100-fold concentrated solution of the test compound in dimethyl sulfoxide (DMSO, Sigma) was pipetted into either a white 1536-well or a white low-volume 384-well microtiter plate (both Greiner Bio-One, Frickenhausen, Germany). […] The concentration of DGKα was adjusted depending of the activity of the enzyme lot and was chosen appropriate to have the assay in the linear range, a typical concentration is about 0.1 nM. The reaction was stopped by the addition of […] of “ADP-Glo-reagent” (1 to 1.5 diluted with water) and the resulting mixture was incubated at 22° C. for 1 h to convert the ATP not consumed in the kinase reaction completely to cAMP. […] The amount of emitted light was taken as a measure for the amount of ADP generated and thereby for the activity of the DGKα.

[2] = system: IFN-γ; assay: IFN-γ secretion in Colo-800 / MART1 T cell co-culture (ELISA); format: cell-based, human; settings: monotherapy 50 nM; 72 hours after start of co-culture
[3] = target: T2, human DGKzeta (Homo sapiens, UniProt Q13574); assay: Human DGKzeta kinase activity inhibition assay (ADP-Glo); format: biochemical; settings: read-out: IC50 hDGKz
T2 construct: C-terminally FLAG-tagged, recombinant full-length human DGKζ; made in house; host or cells: baculovirus-infected insect cells
Method: Human diacylglycerol kinase zeta (DGKζ) inhibitory activity of compounds of the present invention was quantified employing the human DGKζ kinase activity assay as described in the following paragraphs. In essence, the enzyme activity was measured by quantification of the adenosine-di-phosphate (ADP) generated as a co-product of the enzyme reaction via the “ADP-Glo™ Kinase Assay” kit from the company Promega. This detection system works as follows: In a first step the adenosine-tri-phosphate (ATP) not consumed in the kinase reaction is quantitatively converted to cyclic adenosine-mono-phosphate (cAMP) employing an adenylate cyclase (“ADP-Glo-reagent”), then the adenylate cyclase is stopped and the ADP generated in the kinase reaction is converted to ATP, which subsequently generates in a luciferase-based reaction a glow-luminescence signal (“Kinase Detection Reagent”).
as §1, with “DGKζ (inhouse expressed” for “DGKalpha (expressed”, “chromatography)” for “chromatography as described below, DGKa_hu_1)”, “As an alternative, commercially available enzyme by Carnabio can be used. As” for “As”, “kinase,” for “kinase”
For the assay 50 nl of a 100-fold concentrated solution of the test compound in dimethyl sulfoxide (DMSO, Sigma) was pipetted into either a white 1536-well or a white low-volume 384-well microtiter plate (both Greiner Bio-One, Frickenhausen, Germany). […] The concentration of DGKζ was adjusted depending of the activity of the enzyme lot and was chosen appropriate to have the assay in the linear range, a typical concentration is about 0.1 nM. The reaction was stopped by the addition of 2.5 μL of “ADP-Glo-reagent” (1 to 1.5 diluted with water) and the resulting mixture was incubated at 22° C. for 1 h to convert the ATP not consumed in the kinase reaction completely to cAMP. […] The amount of emitted light was taken as a measure for the amount of ADP generated and thereby for the activity of the DGKζ.

T1 sequence (P23743 whole entry): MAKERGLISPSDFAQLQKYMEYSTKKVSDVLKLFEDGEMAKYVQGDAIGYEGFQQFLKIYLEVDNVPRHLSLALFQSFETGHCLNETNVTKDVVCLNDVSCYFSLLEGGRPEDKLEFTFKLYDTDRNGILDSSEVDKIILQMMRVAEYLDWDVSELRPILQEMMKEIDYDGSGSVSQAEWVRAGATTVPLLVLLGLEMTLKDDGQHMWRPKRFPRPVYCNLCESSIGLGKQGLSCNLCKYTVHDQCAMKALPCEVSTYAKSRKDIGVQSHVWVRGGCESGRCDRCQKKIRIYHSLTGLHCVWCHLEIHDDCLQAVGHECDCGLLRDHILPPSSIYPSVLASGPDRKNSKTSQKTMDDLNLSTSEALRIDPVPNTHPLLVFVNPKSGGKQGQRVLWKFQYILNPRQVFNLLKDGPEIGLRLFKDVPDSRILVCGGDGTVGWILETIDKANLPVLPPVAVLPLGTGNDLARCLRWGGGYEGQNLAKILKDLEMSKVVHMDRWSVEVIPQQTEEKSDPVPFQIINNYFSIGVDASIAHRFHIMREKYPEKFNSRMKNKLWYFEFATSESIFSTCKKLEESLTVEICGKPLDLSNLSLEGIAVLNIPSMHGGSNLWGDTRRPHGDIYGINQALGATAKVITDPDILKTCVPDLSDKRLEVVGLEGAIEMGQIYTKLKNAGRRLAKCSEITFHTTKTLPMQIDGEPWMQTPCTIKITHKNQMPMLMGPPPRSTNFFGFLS
T2 sequence (Q13574 whole entry): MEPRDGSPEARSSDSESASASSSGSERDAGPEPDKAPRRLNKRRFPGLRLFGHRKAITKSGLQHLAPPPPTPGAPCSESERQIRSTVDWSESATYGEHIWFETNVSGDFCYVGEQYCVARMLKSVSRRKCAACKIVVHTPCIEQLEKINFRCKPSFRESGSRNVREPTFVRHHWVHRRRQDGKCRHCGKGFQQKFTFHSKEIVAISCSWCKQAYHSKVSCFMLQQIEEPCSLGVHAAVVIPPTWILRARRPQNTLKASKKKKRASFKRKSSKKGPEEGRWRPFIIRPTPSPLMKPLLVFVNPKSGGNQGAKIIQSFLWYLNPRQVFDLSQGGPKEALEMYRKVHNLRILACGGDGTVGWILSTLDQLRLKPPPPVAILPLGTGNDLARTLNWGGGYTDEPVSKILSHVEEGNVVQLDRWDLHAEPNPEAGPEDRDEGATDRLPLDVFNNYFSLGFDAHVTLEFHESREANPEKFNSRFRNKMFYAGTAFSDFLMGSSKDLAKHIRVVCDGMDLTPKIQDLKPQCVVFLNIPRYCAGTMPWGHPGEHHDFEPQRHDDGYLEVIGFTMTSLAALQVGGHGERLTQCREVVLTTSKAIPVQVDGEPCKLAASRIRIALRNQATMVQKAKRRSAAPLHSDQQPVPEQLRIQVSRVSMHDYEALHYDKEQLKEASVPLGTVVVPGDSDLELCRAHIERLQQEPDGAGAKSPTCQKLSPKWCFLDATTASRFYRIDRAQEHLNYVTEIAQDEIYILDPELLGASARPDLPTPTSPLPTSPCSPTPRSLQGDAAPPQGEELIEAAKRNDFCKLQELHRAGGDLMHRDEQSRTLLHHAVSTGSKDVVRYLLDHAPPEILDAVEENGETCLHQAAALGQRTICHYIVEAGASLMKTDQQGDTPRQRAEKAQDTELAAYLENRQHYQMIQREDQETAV

SMILES | pIC50 [1] | increase in IFN-γ secretion [2] | pIC50 [3]
COc1ccc(C(=O)c2sc(N(c3ccc(F)cc3)[C@H](C)C(N)=O)nc2N)cc1 [DGKzeta inhibitor A′, (R)-2-(N-[4-amino-5-(4-methoxybenzoyl)thiazol-2-yl]-4-fluoro-anilino)propanamide] | < 5.44 | moderate | 
Cc1ccc2oc(C3CCN(c4c(C(N)=O)c(=O)n(C)c5ccc(F)cc45)CC3)nc2c1 [DGKalpha inhibitor A, 6-fluoro-1-methyl-4-[4-(5-methyl-1,3-benzoxazol-2-yl)piperidin-1-yl]-2-oxo-1,2-dihydroquinoline-3-carboxamide] | 9.60 | slight | 4.76
